{"source": "patent US5882881A", "about": "“Inhibition of cyst formation by cytoskeletal specific drugs” (priority 1998, dated 1999)", "key": {"Murine CPK Cells": {"test_system": "Murine CPK Cells", "assay": "3H-thymidine incorporation (DNA synthesis) in CPK cell suspension culture", "assay_type": "cell-based, mouse", "conditions": "± SD, three wells; concentrations as in Table II; control 100 ± 11; 1440 min", "protocol": "Growth studies were performed on kidney cells derived from day 10, 21 and 28 postnatal CPK mice and their normal littermates. Immediately after cells were placed in suspension or monolayer culture, 3 μCi of ^3 H-thymidine (^3 H-dThd, specific activity 45 Ci/mmol, Amersham, Ill.) was placed in each well of the culture plate. DNA synthesis was assessed by incorporation of ^3 H-dThd over the 24 hours of culture, and trichloroacetic acid-insoluble. radioactivity was expressed as cpm/μg protein. Protein was assayed with the BCA reagent as described by the manufacturer (Pierce, Rockford, Ill.). At 24 hours of culture, an aliquot (0.2 ml) of the suspension was removed and the number of cysts counted using an inverted microscope. The number of cysts was expressed as a ratio factored for the total number of cells in the suspension at 24 hours of culture. Cyst diameter was measured at 100× using an eyepiece micrometer.\nThe effects of various metabolic inhibitors on cyst formation were studied in cultures derived from day 21 postnatal CPK mice. […] Taxol (25 μM), a microtubule specific inhibitor, was from Calbiochem (La Jolla, Calif.). All other chemicals were obtained from Sigma Chemical Co. Cytosine arabinoside was added at the final concentration of 20 μg/ml to inhibit DNA synthesis; α-amanitin at 100 ng/ml to inhibit RNA synthesis; cycloheximide at 40 μg/ml to inhibit protein synthesis; amiloride at 1 mM to inhibit the renal epithelial Na^+ -H^+ exchange; ouabain at 0.5 mM to inhibit Na^+ -K^+ -ATPase; brefeldin-A at 10 μg/ml to inhibit transport of surface proteins; griseofulvin at 350 μM to inhibit microtubule function; colchicine at 10 μM to inhibit microtubule polymerization; and cytochalasin-B and cytochalasin-D at 10 μM to depolymerize actin filaments.\nIn the presence of these metabolic inhibitors in vitro, cyst formation was noted to be either present or absent; if present, the diameters of 20 cysts from a 0.2 ml aliquot were measured. In the same samples, ^3 H-dThd incorporation was also measured as described above. […] After each wash, cell clusters were collected by centrifuging at 200×g for 1 minute and the supernatant discarded. Washed cell clusters were resuspended in the original volume of growth medium without inhibitors, placed in agarose coated wells and incubated at 37° C. in a moisture saturated incubator in 5% CO2 and air.\nIn this table, the mean cyst size is reported as ±SD with a measurement of twenty cysts. The ^3 H-dThd incorporation is reported as ±SD using measurements of three wells. The * indicates […] versus control. […] The entries listed as \"NA\" in the table indicate data that is not available."}, "human ADPKD cells": {"test_system": "human ADPKD cells", "assay": "In vitro cyst formation in human ADPKD cells", "assay_type": "cell-based", "conditions": "human ADPKD cells; cytosine arabinoside 20 μg/ml, α-amanitin 100 ng/ml, cycloheximide 40 μg/ml, amiloride 1 mM, ouabain 0.5 mM, taxol 25 μM, colchicine 10 μM, vinblastine 1 μM, cytochalasins 10 μM", "text": "I have substituted human ADPKD cells for the murine CPK cells of Example 1 and produced similar results. Other cyst-forming cells are believed to also form suitable results with only minor deviations from the conditions set forth in Example 1.\nCell suspensions were separated from debris by sedimentation at unit gravity and decantation. After washing once with DMEM/F12 medium, cells were suspended in DMEM/F12 supplemented with 1.2 gm/l sodium bicarbonate, 1× insulin, transferrin and selenium (Sigma # 11184), 1% lipids supplement (Sigma # L4646) and 1× antibiotic/antimycotic (Sigma # A7292) at a density of 5×10^4 cells per ml. Two mls of the cell suspension were aliquoted into each well of a six-well plastic cell culture plates that had been precoated with 2 mls of 1% low melting point agarose in DMEM/F12 and incubated at 37° C. in a humidified atmosphere of 5% CO2 in air.\nI used the in vitro cyst formation system of the present invention to analyze compounds that affect the process of cyst formation. To determine the therapeutic effectiveness of an agent, cyst-forming cells are suspended in a medium to which the agent has been added. These cells are then cultured on a solid phase without formation of a layer of cells on the surface, such as in the assay system described in Example 1. The extent to which the cells actually form cysts can be detected and compared to the extent of cyst formation expected if no agent were added. If the amount of cyst formation is lower than expected, then the agent is a good candidate for therapeutic intervention of cystic diseases."}, "cpk mice": {"test_system": "cpk mice", "assay": "Growth and survival of cpk mice treated with taxol or methotrexate (FIG. 3B)", "assay_type": "in vivo, mouse", "text": "(§1) […]. The body weights of untreated, taxol treated and methotrexate treated C57BL/6j mice between day 10 and day 45 after birth is shown in A. The body weights of untreated, taxol treated and methotrexate treated cpk mice are shown in B. Results in each group are the mean of 6 animals. Untreated and methotrexate treated cpk mice died between days 26 and 28. […].\n(§2) In a related procedure I treated both normal C57BL/6 and cpk mice at 11-14 days of age with either taxol or methotrexate as described above. Six untreated mice served as controls in this experiment."}, "[1]": {"conditions": "humans; approximately; cited from earlier work"}, "cpk mice kidney": {"test_system": "cpk mice kidney", "assay_type": "in vivo, mouse", "conditions": "weekly taxol for 200 days", "protocol": "[…]. Untreated and methotrexate (MTX) treated polycystic cpk mice all died before 30 days of age. […]. The dotted line starting at day 120 indicates the number and age of apparently healthy taxol treated polycystic mice that were sacrificed for histology studies. Pairs of mice were sacrificed at 120 days, 182 days and 210 days of age.\nEleven homozygous cpk mice, raised and identified as in Example 6 were treated with 15 μl of 10 mg/ml taxol in DMSO through intraperitoneal injection beginning 11-14 days after birth. Following the first treatment, the mice were administered with the same treatment once every week thereafter. As controls, 6 cpk mice were treated with 15 μl intraperitoneal injections of DMSO beginning 10-12 days after birth and then once every week thereafter."}, "[2]": {"test_system": "normal phenotype, heterozygous mice", "assay": "Body weight of normal phenotype heterozygous C57BL/6 mice (FIG. 3A)", "assay_type": "in vivo, mouse", "conditions": "versus methotrexate or non-treated", "text": "as §1, §2"}}}
{"smiles": "CC(=O)O[C@H]1C(=O)[C@@]2(C)[C@H]([C@H](OC(=O)c3ccccc3)[C@]3(O)C[C@H](OC(=O)[C@H](O)[C@@H](NC(=O)c4ccccc4)c4ccccc4)C(C)=C1C3(C)C)[C@]1(OC(C)=O)CO[C@@H]1C[C@@H]2O", "note": "[Taxol]", "values": [{"measurement": "^3 H-dThd Incorporation", "setting": "Murine CPK Cells", "result": "90 ± 11", "unit": "% control"}, {"measurement": "cyst formation (in words)", "setting": "human ADPKD cells", "result": "reversibly inhibited in vitro cyst formation in both models"}, {"measurement": "average survival", "setting": "cpk mice; FIG. 3, mean of 6 animals", "result": "45 ± 2", "unit": "days"}, {"measurement": "weight gain (in words)", "setting": "cpk mice; cpk mice, versus DMSO or methotrexate", "result": "gained weight at substantially the same or lower rate"}, {"measurement": "lifespan (in words)", "setting": "cpk mice; versus DMSO or methotrexate-treated mice", "result": "substantially longer lifespans"}, {"measurement": "in vivo half-life", "setting": "[1]", "result": "6 to 12", "unit": "h"}, {"measurement": "kidney histology of control mice", "setting": "cpk mice kidney", "result": "normal kidney histology"}, {"measurement": "weight gain (in words)", "setting": "[2]", "result": "gained less weight"}]}
